Test results reported in patent US5698532A, “Pyrimidine nucleosides and methods for treating viral infections with same” (priority 1995, dated 1997).
Like-named read-outs stand apart in the source and are kept apart here.

Tests used:
[1] = Oral bioavailability (rat); type: in vivo; settings: for bioavailability: in vivo, po
[2] = target: HSV-2 thymidine kinase (Human herpesvirus 2, UniProt P89446); assay: inhibition of HSV-2 thymidine kinase; type: biochemical
Experimental: In this test procedure, the assay mixture contains 50 mmol Tris HCl, pH 8, 5 mmol magnesium chloride, 5 mmol ATP, 0.3 μmol ^3 H-thymidine (50 Ci/mmol), suitably diluted enzyme preparation and various concentrations of test compounds in a total volume of 100 μl. Assays are incubated at 37° C. for 30 minutes and the reaction is terminated by immersion in a boiling water bath for 2 minutes. 85 μl aliquots from each assay are then dried on to DEAE-cellulose paper discs and the unphosphorylated ^3 H-thymidine is removed by washing in 4 mmol ammonium formate. The radioactivity remaining bound to the discs is then measured by scintillation spectrophotometry. The degree of inhibition at each concentration of test compound is expressed as a percentage of the control reaction (100%) after subtracting a measured blank value which represents the amount of radioactivity bound to the disc from a reaction containing heat-inactivated enzymes. The lC50 value, namely the concentration of test compound which inhibits enzyme activity by 50%, is then calculated.

[3] = 37° C., 30 minutes, pH 8, 3H-thymidine, read-out: Activity against HSV-2 TK, IC50

Chain of HSV-2 thymidine kinase (P89446 whole entry): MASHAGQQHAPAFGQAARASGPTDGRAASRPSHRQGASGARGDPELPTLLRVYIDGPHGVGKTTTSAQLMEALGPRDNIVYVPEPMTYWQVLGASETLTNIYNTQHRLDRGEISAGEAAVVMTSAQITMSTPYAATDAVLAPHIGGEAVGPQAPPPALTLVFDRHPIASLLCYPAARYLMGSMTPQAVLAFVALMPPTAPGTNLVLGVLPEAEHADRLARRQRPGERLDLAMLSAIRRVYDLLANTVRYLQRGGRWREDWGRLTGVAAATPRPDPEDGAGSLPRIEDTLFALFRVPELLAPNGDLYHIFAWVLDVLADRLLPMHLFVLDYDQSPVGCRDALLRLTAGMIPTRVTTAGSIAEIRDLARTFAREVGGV

SMILES: CCc1cn([C@H]2C[C@H](O)[C@@H](CNC(=O)C(C)Oc3ccc(Cl)cc3Cl)O2)c(=O)[nH]c1=O (single isomer, unassigned) [compound A, diastereoisomer b]
- Oral bioavailability (rat) [1]: too low to calculate

SMILES: CCc1cn([C@H]2C[C@H](O)[C@@H](CNC(=O)C(C)Oc3ccc(Cl)cc3Cl)O2)c(=O)[nH]c1=O (single isomer, unassigned) [Compound A, diastereoisomer a]
- bioavailability [1]: 2.84%

SMILES: CCc1cn([C@H]2C[C@H](O)[C@@H](CNC(=O)C(C)Oc3ccc(Cl)cc3Cl)O2)c(=O)[nH]c1=O (mixture of isomers) [Compound A]
- IC50 [2, 3]: 3.7 nM

SMILES: CCc1cn([C@@H]2O[C@H](CNC(=O)C(C)Oc3ccc(Cl)cc3Cl)[C@@H](O)[C@@H]2F)c(=O)[nH]c1=O (single isomer, unassigned) [Compound B, diastereoisomer b]
- Oral bioavailability (rat) [1]: 12.9%

SMILES: CCc1cn([C@@H]2O[C@H](CNC(=O)[C@H](C)Oc3cc(OC)c(Cl)cc3Cl)[C@@H](O)[C@@H]2F)c(=O)[nH]c1=O [Compound (I), 1-[5-[2(S)-(2,4-dichloro-5-methoxy-phenoxy)propionamido]-2,5-dideoxy-2-fluoro-β-D-arabino-furanosyl]-5-ethyluracil]
- IC50 [2]: 0.18 nM
- bioavailability [1]: 26%

SMILES: CCc1cn([C@@H]2O[C@H](CNC(=O)C(C)Oc3ccc(Cl)cc3Cl)[C@@H](O)[C@@H]2F)c(=O)[nH]c1=O (mixture of isomers) [Compound B]
- IC50 [2, 3]: 4 nM

SMILES: CCc1cn([C@@H]2O[C@H](CNC(=O)C(C)Oc3ccc(Cl)cc3Cl)[C@@H](O)[C@@H]2F)c(=O)[nH]c1=O (single isomer, unassigned) [Compound B, diastereoisomer a]
- bioavailability [1]: 14.4%
